Source: ChEMBL document CHEMBL5120784, “Discovery of a novel 2-aminopyrazine-3-carboxamide as a potent and selective inhibitor of Activin Receptor-Like Kinase-2 (ALK2) for the treatment of fibrodysplasia ossificans progressiva” (Bioorg Med Chem Lett, 2022)
In brackets after ≈: the same amount, converted by molar mass. Each block holds one compound with its values, some of them ahead of it.

Tests used:
[1] = Microsomal stability in mouse liver microsomes assessed as clearance; type: ADME, Microsome
[2] = Permeability of compound by PAMPA assay; type: ADME; design: reference not given here
[3] = Aqueous solubility of compound at pH 6.8; type: physicochemical
[4] = target: T1, Bone morphogenetic protein receptor type-1A (Homo sapiens, UniProt P36894); experiment: Inhibition of wild type ALK3 (unknown origin) assessed as enzymatic activity using chemiluminescent substrate by ADP-Glo assay
T1 sequence (P36894 whole entry): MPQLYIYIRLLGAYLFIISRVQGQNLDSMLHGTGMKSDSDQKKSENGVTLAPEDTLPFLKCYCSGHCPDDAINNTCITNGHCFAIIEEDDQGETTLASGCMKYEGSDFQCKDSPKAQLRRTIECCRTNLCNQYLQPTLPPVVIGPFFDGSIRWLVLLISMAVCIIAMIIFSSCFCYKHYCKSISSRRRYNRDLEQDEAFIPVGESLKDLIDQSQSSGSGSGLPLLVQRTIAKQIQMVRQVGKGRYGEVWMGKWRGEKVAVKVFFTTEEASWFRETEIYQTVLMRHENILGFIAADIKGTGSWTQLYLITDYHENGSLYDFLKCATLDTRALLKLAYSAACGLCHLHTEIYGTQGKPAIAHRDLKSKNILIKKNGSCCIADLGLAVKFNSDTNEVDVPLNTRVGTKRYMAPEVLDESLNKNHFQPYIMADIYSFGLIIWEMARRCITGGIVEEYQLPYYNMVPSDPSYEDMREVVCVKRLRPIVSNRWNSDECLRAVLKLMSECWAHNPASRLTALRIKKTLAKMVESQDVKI

[5] = target: Serine/threonine-protein kinase 38 (Homo sapiens) (UniProt Q15208); experiment: Binding affinity to wild type STK38 (unknown origin) assessed as percent of control at 1 uM by Kinomescan method relative to control
Sequence of Serine/threonine-protein kinase 38 (Homo sapiens) (Q15208 2-465 limits assumed): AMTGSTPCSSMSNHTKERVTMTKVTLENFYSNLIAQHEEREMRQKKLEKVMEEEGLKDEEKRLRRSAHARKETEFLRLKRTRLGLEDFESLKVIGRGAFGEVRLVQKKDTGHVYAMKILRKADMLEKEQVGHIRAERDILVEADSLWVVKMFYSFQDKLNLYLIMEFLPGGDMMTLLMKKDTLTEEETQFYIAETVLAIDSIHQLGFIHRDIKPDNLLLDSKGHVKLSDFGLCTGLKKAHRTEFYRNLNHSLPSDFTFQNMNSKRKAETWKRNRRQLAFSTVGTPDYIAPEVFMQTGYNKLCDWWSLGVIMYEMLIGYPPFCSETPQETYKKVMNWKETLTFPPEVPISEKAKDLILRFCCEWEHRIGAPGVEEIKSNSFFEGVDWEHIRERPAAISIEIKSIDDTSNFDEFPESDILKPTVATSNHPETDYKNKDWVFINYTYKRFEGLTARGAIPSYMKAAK

[6] = target: T2, Bone morphogenetic protein receptor type-1B (Homo sapiens, UniProt O00238); experiment: Binding affinity to wild type ALK6 (unknown origin) assessed as percent of control at 1 uM by Kinomescan method relative to control
T2 sequence (O00238 whole entry): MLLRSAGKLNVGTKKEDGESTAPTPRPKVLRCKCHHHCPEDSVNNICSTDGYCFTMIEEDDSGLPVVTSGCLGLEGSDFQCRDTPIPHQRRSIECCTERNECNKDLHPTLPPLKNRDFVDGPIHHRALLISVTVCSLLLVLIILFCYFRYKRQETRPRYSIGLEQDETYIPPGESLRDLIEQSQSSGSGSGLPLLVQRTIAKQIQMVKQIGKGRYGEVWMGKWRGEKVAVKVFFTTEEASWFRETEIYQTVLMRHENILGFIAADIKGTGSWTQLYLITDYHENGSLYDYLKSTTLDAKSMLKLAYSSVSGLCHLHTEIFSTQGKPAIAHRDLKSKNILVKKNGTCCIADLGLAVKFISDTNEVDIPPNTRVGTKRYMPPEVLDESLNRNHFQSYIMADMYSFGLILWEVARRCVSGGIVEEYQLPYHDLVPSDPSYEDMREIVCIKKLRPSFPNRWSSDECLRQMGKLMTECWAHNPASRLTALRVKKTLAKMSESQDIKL

[7] = species: Homo sapiens; experiment: Selectivity ratio of IC50 for inhibition of wild type ALK6 (unknown origin) to IC50 for inhibition of ALK2 R206H mutant (unknown origin)
[8] = target: Dual specificity protein kinase CLK1 (Homo sapiens) (UniProt P49759); experiment: Binding affinity to wild type CLK1 (unknown origin) assessed as percent of control at 1 uM by Kinomescan method relative to control
[9] = target: T3, Activin receptor type-1 (Homo sapiens, UniProt Q04771); experiment: Inhibition of wild type ALK2 (unknown origin) assessed as enzymatic activity by microfluidic mobility shift assay
T3 sequence (Q04771 whole entry): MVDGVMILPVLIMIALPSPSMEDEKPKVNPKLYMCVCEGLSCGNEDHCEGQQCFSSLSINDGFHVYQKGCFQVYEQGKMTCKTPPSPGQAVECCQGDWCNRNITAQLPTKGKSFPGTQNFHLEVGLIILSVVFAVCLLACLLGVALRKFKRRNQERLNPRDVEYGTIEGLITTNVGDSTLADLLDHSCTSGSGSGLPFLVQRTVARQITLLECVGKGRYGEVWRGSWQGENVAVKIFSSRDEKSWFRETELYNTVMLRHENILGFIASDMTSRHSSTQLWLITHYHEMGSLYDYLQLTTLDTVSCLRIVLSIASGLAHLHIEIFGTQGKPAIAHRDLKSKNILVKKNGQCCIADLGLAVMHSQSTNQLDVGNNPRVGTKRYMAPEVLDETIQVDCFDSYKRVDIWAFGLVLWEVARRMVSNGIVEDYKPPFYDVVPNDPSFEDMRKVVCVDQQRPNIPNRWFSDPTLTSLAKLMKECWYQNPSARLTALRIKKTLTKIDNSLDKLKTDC

[10] = target: T4, Activin receptor type-1 (Homo sapiens, UniProt Q04771, R206H); experiment: Inhibition of ALK2 R206H mutant (unknown origin) assessed as enzymatic activity by microfluidic mobility shift assay
T4 sequence (Q04771 21-509 R206H limits assumed): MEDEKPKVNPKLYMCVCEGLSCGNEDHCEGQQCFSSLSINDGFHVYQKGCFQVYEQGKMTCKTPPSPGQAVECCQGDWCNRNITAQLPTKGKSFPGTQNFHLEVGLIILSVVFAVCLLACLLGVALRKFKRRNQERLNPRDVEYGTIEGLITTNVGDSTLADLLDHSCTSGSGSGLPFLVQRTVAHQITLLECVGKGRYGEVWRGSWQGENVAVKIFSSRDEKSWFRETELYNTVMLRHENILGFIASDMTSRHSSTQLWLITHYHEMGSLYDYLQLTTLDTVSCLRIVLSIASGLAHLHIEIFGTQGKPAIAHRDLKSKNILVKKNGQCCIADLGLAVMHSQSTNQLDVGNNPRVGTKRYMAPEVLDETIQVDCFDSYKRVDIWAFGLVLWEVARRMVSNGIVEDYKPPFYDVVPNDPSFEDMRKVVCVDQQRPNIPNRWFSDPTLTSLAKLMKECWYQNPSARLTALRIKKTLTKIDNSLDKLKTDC

[11] = species: Homo sapiens; experiment: Selectivity ratio of IC50 for inhibition of wild type ALK3 (unknown origin) to IC50 for inhibition of ALK2 R206H mutant (unknown origin)
[12] = target: Non-receptor tyrosine-protein kinase TYK2 (Homo sapiens) (UniProt P29597); experiment: Binding affinity to wild type TYK2 JH2 domain (unknown origin) assessed as percent of control at 1 uM by Kinomescan method relative to control
Sequence of Non-receptor tyrosine-protein kinase TYK2 (Homo sapiens) (P29597 whole entry, the tested form may be a part): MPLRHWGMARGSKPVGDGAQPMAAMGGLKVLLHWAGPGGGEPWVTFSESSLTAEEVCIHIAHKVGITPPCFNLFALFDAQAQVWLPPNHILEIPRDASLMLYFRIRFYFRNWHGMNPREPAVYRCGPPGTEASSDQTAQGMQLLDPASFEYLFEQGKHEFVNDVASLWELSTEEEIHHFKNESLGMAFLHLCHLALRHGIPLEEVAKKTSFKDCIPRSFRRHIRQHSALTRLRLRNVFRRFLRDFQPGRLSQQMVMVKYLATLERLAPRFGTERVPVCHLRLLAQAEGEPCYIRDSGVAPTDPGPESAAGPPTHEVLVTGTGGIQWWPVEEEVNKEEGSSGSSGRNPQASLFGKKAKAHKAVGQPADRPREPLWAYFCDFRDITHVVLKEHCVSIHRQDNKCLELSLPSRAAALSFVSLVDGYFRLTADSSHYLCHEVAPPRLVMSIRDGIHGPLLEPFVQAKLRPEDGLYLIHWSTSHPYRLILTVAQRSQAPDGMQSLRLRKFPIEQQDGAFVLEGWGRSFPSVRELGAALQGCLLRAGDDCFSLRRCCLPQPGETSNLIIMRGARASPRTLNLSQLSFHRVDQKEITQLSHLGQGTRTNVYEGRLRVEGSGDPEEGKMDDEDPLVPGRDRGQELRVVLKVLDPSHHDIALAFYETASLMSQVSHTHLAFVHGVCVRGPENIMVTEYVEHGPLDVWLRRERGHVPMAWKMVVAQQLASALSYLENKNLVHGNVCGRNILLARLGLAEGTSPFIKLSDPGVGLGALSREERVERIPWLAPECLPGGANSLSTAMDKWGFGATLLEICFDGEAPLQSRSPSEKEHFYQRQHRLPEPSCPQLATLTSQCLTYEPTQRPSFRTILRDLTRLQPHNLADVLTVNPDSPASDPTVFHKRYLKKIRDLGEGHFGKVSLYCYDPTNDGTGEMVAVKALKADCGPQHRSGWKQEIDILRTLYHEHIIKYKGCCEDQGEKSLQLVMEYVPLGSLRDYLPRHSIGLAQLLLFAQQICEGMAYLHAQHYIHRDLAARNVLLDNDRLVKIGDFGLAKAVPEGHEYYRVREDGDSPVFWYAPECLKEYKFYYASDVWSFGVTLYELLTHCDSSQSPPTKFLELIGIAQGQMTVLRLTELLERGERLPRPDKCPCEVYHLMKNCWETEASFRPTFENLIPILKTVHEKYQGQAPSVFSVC

[13] = species: Homo sapiens; experiment: Selectivity ratio of IC50 for inhibition of wild type ALK5 (unknown origin) to IC50 for Inhibition of ALK2 R206H mutant (unknown origin)
[14] = species: Homo sapiens; experiment: Selectivity ratio of IC50 for inhibition of wild type ALK2 (unknown origin) to IC50 for inhibition of ALK2 R206H mutant (unknown origin)
[15] = target: T5, TGF-beta receptor type-1 (Homo sapiens, UniProt P36897); experiment: Inhibition of wild type ALK5 (unknown origin) assessed as enzymatic activity by microfluidic mobility shift assay
T5 sequence (P36897 whole entry): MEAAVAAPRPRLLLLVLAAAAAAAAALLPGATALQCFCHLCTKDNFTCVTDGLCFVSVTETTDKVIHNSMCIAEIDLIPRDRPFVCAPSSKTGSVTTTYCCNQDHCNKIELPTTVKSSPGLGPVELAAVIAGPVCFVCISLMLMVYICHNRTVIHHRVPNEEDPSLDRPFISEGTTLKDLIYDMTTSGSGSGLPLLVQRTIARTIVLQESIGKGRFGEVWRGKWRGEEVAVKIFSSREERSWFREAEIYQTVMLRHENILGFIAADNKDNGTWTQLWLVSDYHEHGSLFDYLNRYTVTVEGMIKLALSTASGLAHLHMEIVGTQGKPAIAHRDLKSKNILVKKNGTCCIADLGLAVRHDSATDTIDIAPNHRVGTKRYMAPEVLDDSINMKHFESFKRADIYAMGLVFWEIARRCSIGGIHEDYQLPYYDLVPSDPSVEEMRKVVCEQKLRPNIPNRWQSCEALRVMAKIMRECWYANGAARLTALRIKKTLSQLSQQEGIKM

[16] = target: T1, Bone morphogenetic protein receptor type-1A; experiment: Binding affinity to wild type ALK3 (unknown origin) assessed as percent of control at 1 uM by Kinomescan method relative to control
[17] = target: T6, Activin receptor type-1 (Homo sapiens) (UniProt Q04771); experiment: Binding affinity to wild type ALK2 (unknown origin) assessed as percent of control at 1 uM by Kinomescan method relative to control
T6 sequence (whole entry): T3 sequence (Q04771 whole entry)

[18] = target: T2, Bone morphogenetic protein receptor type-1B; experiment: Inhibition of wild type ALK6 (unknown origin) assessed as enzymatic activity using chemiluminescent substrate by ADP-Glo assay
[19] = target: T7, Activin receptor type-1-like (Homo sapiens, UniProt P37023); experiment: Inhibition of wild type ALK1 (unknown origin) assessed as enzymatic activity by microfluidic mobility shift assay
T7 sequence (P37023 whole entry): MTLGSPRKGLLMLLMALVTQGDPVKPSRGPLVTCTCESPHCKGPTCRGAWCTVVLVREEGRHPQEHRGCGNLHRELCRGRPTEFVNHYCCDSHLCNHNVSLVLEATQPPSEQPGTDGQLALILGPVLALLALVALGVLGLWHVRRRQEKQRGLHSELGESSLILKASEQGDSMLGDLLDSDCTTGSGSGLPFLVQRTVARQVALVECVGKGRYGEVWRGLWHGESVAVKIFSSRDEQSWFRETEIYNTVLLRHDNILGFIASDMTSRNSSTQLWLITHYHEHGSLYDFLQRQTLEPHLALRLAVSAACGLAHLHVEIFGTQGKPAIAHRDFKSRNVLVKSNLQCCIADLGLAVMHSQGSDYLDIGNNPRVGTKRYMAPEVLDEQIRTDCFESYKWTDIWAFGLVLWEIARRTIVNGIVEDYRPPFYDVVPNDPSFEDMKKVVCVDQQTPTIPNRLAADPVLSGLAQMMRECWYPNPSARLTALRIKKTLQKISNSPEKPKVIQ

[20] = target: Interferon-induced, double-stranded RNA-activated protein kinase (Homo sapiens) (UniProt P19525); experiment: Binding affinity to wild type EIF2AK2 (unknown origin) assessed as percent of control at 1 uM by Kinomescan method relative to control
Sequence of Interferon-induced, double-stranded RNA-activated protein kinase (Homo sapiens) (P19525 whole entry): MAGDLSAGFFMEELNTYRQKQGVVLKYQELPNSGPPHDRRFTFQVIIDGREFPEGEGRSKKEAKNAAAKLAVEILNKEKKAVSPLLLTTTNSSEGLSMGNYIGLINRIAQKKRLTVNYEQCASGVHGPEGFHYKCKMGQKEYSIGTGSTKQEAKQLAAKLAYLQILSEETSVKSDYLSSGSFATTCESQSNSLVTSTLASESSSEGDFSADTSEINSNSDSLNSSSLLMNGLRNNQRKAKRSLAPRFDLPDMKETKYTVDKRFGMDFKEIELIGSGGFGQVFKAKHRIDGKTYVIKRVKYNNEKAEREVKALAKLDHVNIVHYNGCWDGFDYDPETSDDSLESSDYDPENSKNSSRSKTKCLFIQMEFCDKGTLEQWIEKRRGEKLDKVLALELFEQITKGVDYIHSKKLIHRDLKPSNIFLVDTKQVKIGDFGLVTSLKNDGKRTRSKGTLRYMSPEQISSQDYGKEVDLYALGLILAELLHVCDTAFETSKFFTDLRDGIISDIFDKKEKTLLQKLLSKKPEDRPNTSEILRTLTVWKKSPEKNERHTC

[21] = target: T4, Activin receptor type-1; experiment: Inhibition of ALK2 R206H mutant (unknown origin) transfected in BMP6-stimulated human HEK293 cells by luciferase reporter gene assay; type: cell-based
[22] = species: Homo sapiens; experiment: Selectivity ratio of IC50 for inhibition of wild type ALK1 (unknown origin) to IC50 for inhibition of ALK2 R206H mutant (unknown origin)
[23] = target: Dual specificity protein kinase CLK2 (Homo sapiens) (UniProt P49760); experiment: Binding affinity to wild type CLK2 (unknown origin) assessed as percent of control at 1 uM by Kinomescan method relative to control
Sequence of Dual specificity protein kinase CLK2 (Homo sapiens) (P49760 whole entry, looked up): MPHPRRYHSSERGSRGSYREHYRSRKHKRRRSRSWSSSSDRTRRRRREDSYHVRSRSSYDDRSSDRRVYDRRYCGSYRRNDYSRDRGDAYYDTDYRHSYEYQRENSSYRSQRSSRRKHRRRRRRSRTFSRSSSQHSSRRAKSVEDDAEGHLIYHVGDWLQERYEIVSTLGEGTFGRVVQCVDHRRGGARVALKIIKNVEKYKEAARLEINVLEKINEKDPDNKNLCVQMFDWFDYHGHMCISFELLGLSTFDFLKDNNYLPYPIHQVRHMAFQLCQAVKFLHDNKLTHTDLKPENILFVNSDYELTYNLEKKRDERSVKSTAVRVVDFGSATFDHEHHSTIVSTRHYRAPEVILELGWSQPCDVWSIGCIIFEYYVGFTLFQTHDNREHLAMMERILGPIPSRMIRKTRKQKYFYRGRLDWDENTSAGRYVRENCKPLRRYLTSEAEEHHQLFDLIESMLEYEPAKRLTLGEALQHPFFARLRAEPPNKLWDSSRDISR

[24] = target: T7, Activin receptor type-1-like; experiment: Binding affinity to wild type ALK1 (unknown origin) assessed as percent of control at 1 uM by Kinomescan method relative to control

CLH [1]: 41 µL/min/mg
permeability [2]: 99%
solubility [3]: > 1000 µM
Structure (SMILES): C[C@@](O)(CNC(=O)c1nc(-c2ccc(CN3CCCC3)cc2)cnc1N)C(F)(F)F

CLH [1]: 64 µL/min/mg
permeability [2]: 94%
solubility [3]: 850 µM (≈ 314 µg/mL)
Structure (SMILES): CN(C)Cc1ccc(-c2cnc(N)c(C(=O)NC3CCC(O)CC3)n2)cc1 (centres undefined)

CLH [1]: 74 µL/min/mg
permeability [2]: 96%
solubility [3]: > 1000 µM
Structure (SMILES): Nc1ncc(-c2ccc(CN3CCC(N4CCOCC4)CC3)cc2Cl)nc1C(=O)N[C@H]1CC[C@H](O)CC1

CLH [1]: 839 µL/min/mg
permeability [2]: 100%
solubility [3]: 190 µM (≈ 67.2 µg/mL)
Structure (SMILES): CN(C)Cc1ccc(-c2cnc(N)c(C(=O)NC3CCCCC3)n2)cc1

CLH [1]: 28 µL/min/mg
permeability [2]: 99%
solubility [3]: > 1000 µM
Structure (SMILES): CC(C)N1CCN(Cc2ccc(-c3cnc(N)c(C(=O)NC[C@@](C)(O)C(F)(F)F)n3)cc2)CC1

CLH [1]: 126 µL/min/mg
permeability [2]: 99%
solubility [3]: 510 µM (≈ 203 µg/mL)
Structure (SMILES): CN(C)Cc1ccc(-c2cnc(N)c(C(=O)NC[C@@](C)(O)C(F)(F)F)n2)cc1

CLH [1]: 55 µL/min/mg
permeability [2]: 99%
IC50 [4]: 280 nM
Activity [5]: 14%
Activity [6]: 0.7%
Ratio IC50 [7]: 263
Activity [8]: 29%
IC50 [9]: 12 nM
IC50 [10]: 8 nM
solubility [3]: 420 µM (≈ 233 µg/mL)
Ratio IC50 [11]: 35
Activity [12]: 24%
Ratio IC50 [13]: 275
Ratio IC50 [14]: 1.5
IC50 [15]: 2200 nM
Activity [16]: 11%
Activity [17]: 2%
IC50 [18]: 2100 nM
IC50 [19]: 120 nM
Activity [20]: 14%
IC50 [21]: 44 nM
Ratio IC50 [22]: 15
Activity [23]: 27%
Activity [24]: 8.5%
Structure (SMILES): Nc1ncc(-c2ccc(CN3CCC(N4CCOCC4)CC3)cc2Cl)nc1C(=O)NC12CCC(O)(CC1)CC2

CLH [1]: < 10 µL/min/mg
permeability [2]: 42%
solubility [3]: > 1000 µM
Structure (SMILES): C[C@@](O)(CNC(=O)c1nc(-c2ccc(CN3CCNCC3)cc2)cnc1N)C(F)(F)F

CLH [1]: < 10 µL/min/mg
permeability [2]: 56%
solubility [3]: > 1000 µM
Structure (SMILES): Nc1ncc(-c2ccc(CN3CCC(N4CCCC4)CC3)cc2)nc1C(=O)N[C@H]1CC[C@H](O)CC1 (stereo in doubt; 18)

CLH [1]: 103 µL/min/mg
permeability [2]: 77%
solubility [3]: > 1000 µM
Structure (SMILES): CC(O)CNC(=O)c1nc(-c2ccc(CN(C)C)cc2)cnc1N (racemic)

CLH [1]: 20 µL/min/mg
permeability [2]: 45%
solubility [3]: 4 µM (≈ 1.95 µg/mL)
Structure (SMILES): C[C@@](O)(CNC(=O)c1nc(-c2ccc(CN3CCS(=O)(=O)CC3)cc2)cnc1N)C(F)(F)F

CLH [1]: < 10 µL/min/mg
permeability [2]: 61%
solubility [3]: > 1000 µM
Structure (SMILES): CCN(CC)C1CCN(Cc2ccc(-c3cnc(N)c(C(=O)N[C@H]4CC[C@H](O)CC4)n3)cc2)CC1

CLH [1]: 634 µL/min/mg
permeability [2]: 100%
solubility [3]: > 1000 µM
Structure (SMILES): CC(C)NC(=O)c1nc(-c2ccc(CN(C)C)cc2)cnc1N

CLH [1]: 197 µL/min/mg
Structure (SMILES): C[C@]1(O)CC[C@H](NC(=O)c2nc(-c3ccc(CN4CCC(N5CCOCC5)CC4)cc3Cl)cnc2N)CC1

CLH [1]: 86 µL/min/mg
permeability [2]: 99%
solubility [3]: 190 µM (≈ 83.5 µg/mL)
Structure (SMILES): C[C@@](O)(CNC(=O)c1nc(-c2ccc(CN3CCOCC3)cc2)cnc1N)C(F)(F)F

CLH [1]: 19 µL/min/mg
permeability [2]: 65%
solubility [3]: > 1000 µM
Structure (SMILES): Nc1ncc(-c2ccc(CN3CCC(N4CCOCC4)CC3)cc2)nc1C(=O)N[C@H]1CC[C@H](O)CC1

CLH [1]: 159 µL/min/mg
permeability [2]: 93%
solubility [3]: 880 µM (≈ 337 µg/mL)
Structure (SMILES): CN(C)Cc1ccc(-c2cnc(N)c(C(=O)NCC(O)C(F)(F)F)n2)cc1 (centres undefined)

CLH [1]: 58 µL/min/mg
permeability [2]: 99%
solubility [3]: > 1000 µM
Structure (SMILES): CCN(CC)Cc1ccc(-c2cnc(N)c(C(=O)NC[C@@](C)(O)C(F)(F)F)n2)cc1

CLH [1]: 373 µL/min/mg
permeability [2]: 99%
solubility [3]: > 1000 µM
Structure (SMILES): CCNC(=O)c1nc(-c2ccc(CN(C)C)cc2)cnc1N

CLH [1]: 179 µL/min/mg
permeability [2]: 99%
solubility [3]: 940 µM (≈ 334 µg/mL)
Structure (SMILES): CN(C)Cc1ccc(-c2cnc(N)c(C(=O)NC3CCCC3O)n2)cc1 (centres undefined)

CLH [1]: 12 µL/min/mg
permeability [2]: 85%
solubility [3]: 830 µM (≈ 376 µg/mL)
Structure (SMILES): CC(C)N1CCN(Cc2ccc(-c3cnc(N)c(C(=O)N[C@H]4CC[C@H](O)CC4)n3)cc2)CC1

CLH [1]: 23 µL/min/mg
permeability [2]: 62%
Structure (SMILES): Nc1ncc(-c2ccc(CN3CCC(N4CCCC4)CC3)cc2)nc1C(=O)N[C@H]1CC[C@H](O)CC1 (stereo in doubt; 19)
